Measured values as given in publication PMC5378956, “Inhibition of delta-secretase improves cognitive functions in mouse models of Alzheimer's disease” (Nature Communications, 2017).
Like-named read-outs stand apart in the source and are kept apart here.

Tests used:
cathepsin-L = cathepsin-L (Homo sapiens, UniProt P07711); assay: IC50 assay with cathepsin-L; type: biochemical; conditions: mean±s.d.
Procedure: Cathepsin-L – 100 nM enzyme was pre-incubated with inhibitor in assay buffer (100 mM Sodium Acetate pH 5.5, 1 mM EDTA) for 10 min at 37 °C. The reaction was initiated on addition of 25 μM substrate (D-Val-Leu-Lys-AMC (Bachem).
(§1) To determine the IC50 values of the compounds towards δ-secretase, cathepsin-S, cathepsin-L, caspase-3 and caspase-8, purified recombinant enzyme was incubated in appropriate assay buffers in the presence of increasing concentrations of inhibitors. The formation of fluorescent product was monitored in duplicate reactions and the data were fit to appropriate equations to calculate the IC50 values.

caspase-3 = target: T1, caspase-3 (Homo sapiens, UniProt P42574); assay: IC50 assay with recombinant caspase-3; type: biochemical; conditions: mean±s.d.
T1 construct: purchased Millipore (Billerica, MA)
T1 sequence (P42574 29-175 limits assumed): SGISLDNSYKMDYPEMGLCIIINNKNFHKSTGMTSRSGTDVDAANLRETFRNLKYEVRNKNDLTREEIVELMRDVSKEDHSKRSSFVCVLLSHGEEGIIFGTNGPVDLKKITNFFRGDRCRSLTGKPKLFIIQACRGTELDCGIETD
T1 sequence (P42574 176-277 limits assumed): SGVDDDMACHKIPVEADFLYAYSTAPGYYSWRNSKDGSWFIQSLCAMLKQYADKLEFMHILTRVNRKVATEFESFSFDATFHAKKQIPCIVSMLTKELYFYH
Procedure: Caspase-3 and 8 – The enzyme was pre-incubated with inhibitor in assay buffer (100 mM HEPES pH 7.4, 0.1% CHAPS, 10% Sucrose) for 10 min at 37 °C.
as §1

[1] = Caco-2 monolayer permeability screen; conditions: human, Caco-2
Procedure: Supplementary Table 3: Caco-2 permeability and BBB-PAMPA permeability
For CaCo-2 permeability assay, cells were incubated with 10 µM of these reagents in
buffers for 2 h, and the receiver side buffer is removed for analysis by LC/MS/MS. Efflux […]
(§2) LLOQ: Lower Limit of Quantification; Papp: apparent permeability.

[2] = BBB-PAMPA permeability assay; type: in vitro ADME; conditions: for Papp at 18 h: PAMPA, read-out: effective permeability Pe; for Papp at 18 h / effective permeability Pe: porcine brain lipid, 18 h
Procedure: Supplementary Table 3: Caco-2 permeability and BBB-PAMPA permeability […]
For CaCo-2 permeability assay, cells were incubated with 10 µM of these reagents in buffers for 2 h, and the receiver side buffer is removed for analysis by LC/MS/MS. Efflux […]
For BBB-PAMPA permeability assay, the filter membrane was coated with 4 µl of a 20 mg ml-1 porcine brain lipid in dodecane. 200 µl of the compound solution was added to the donor well. The acceptor well was filled with 200 µl of transport buffer. The acceptor filter plate was carefully placed on to the donor plate to create […]
a sandwich. […] Samples of the donor and acceptor wells were analyzed by LC/MS/MS and the effective permeability (Pe) was calculated.
as §2

[3] = Liver microsomal stability, mouse; conditions: Mouse microsomes, 30 min, 37 °C
Procedure: Supplementary Table 4: Liver microsomal stability
Compound Species Mean Remaining Parent Mean Remaining Parent
(with NADPH) (NADPH-free)
The test agents were incubated in duplicate with microsomes at 37 °C for 30 min. The reaction contained microsomal protein in 100 mM potassium phosphate, 2 mM NADPH, 3 mM MgCl2, pH 7.4. A control was run for each test agent omitting NADPH to detect NADPH-free degradation. Data are reported as % remaining of parent compound. ND, Peak not detected due to bioanalysis issue (poor ionization).

CYP3A = assay: CYP inhibition screening in microsomes; conditions: human
CYP2C9 = CYP2C9 (Homo sapiens, UniProt P11712); assay: CYP inhibition screening in microsomes; conditions: pH 7.4
Sequence of CYP2C9 (P11712 whole entry): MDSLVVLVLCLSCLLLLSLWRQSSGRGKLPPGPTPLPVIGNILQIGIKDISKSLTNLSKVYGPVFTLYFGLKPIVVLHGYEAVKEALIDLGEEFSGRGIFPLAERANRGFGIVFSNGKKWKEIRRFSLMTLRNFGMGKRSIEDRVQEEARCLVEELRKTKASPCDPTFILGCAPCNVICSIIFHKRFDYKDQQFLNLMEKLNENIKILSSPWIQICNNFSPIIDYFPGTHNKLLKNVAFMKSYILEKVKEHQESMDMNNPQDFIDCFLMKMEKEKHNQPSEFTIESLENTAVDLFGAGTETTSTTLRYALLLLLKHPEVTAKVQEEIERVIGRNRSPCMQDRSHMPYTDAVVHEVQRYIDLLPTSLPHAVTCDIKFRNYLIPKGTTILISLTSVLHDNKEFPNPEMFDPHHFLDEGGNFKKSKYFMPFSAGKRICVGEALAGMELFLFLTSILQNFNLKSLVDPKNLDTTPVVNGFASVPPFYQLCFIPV

CYP2D6 = CYP2D6 (Homo sapiens, UniProt P10635); assay: CYP inhibition screening in microsomes; conditions: pH 7.4
Sequence of CYP2D6 (P10635 whole entry): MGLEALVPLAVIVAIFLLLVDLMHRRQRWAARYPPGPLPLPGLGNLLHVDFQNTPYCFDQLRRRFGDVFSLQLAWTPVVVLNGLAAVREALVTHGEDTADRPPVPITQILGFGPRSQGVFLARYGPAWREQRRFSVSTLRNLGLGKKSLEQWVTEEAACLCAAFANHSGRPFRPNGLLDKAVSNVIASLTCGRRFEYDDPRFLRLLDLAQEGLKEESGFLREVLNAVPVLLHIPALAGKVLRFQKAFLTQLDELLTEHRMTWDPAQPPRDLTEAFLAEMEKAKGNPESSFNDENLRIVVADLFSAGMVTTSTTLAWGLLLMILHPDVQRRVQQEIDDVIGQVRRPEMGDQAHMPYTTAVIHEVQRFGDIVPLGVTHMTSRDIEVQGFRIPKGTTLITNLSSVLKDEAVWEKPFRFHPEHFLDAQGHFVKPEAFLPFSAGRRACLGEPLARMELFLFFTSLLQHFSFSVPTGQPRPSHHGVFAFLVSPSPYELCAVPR

CYP2C19 = CYP2C19 (Homo sapiens, UniProt P33261); assay: CYP inhibition screening in microsomes; conditions: pH 7.4
Sequence of CYP2C19 (P33261 whole entry): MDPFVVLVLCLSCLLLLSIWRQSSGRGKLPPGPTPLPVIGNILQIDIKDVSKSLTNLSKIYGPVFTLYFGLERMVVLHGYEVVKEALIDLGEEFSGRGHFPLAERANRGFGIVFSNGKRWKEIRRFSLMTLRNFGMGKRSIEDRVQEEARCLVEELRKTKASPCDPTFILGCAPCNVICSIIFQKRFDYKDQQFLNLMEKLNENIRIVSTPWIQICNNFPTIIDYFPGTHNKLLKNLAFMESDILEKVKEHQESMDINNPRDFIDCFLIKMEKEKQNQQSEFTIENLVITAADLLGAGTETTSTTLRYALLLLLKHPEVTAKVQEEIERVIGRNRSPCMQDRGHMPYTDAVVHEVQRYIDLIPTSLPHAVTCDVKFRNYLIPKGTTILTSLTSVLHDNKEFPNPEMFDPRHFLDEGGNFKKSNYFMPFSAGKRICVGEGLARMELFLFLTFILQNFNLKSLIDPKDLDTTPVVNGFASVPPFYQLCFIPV

CYP1A2 = target: T2, CYP1A2 (Homo sapiens, UniProt P05177); assay: CYP inhibition screening in microsomes; conditions: pH 7.4
T2 sequence (P05177 1-516): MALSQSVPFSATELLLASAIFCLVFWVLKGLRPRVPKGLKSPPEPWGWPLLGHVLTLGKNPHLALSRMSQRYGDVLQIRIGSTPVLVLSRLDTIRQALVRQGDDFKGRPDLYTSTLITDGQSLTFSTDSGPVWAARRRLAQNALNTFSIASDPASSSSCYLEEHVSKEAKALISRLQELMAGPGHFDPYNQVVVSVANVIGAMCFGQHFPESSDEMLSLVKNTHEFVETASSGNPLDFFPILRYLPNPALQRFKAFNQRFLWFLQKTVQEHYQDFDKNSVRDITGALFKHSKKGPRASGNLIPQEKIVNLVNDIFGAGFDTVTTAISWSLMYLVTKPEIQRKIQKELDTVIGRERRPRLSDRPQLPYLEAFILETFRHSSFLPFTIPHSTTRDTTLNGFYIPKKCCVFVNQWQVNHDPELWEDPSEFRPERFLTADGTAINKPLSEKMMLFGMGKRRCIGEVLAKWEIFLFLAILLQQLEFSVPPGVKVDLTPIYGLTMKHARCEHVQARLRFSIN

δ-secretase = target: T3, δ-secretase (Homo sapiens, UniProt Q99538); assay: IC50 assay with purified recombinant δ-secretase (AEP), substrate Cbz-Ala-Ala-Asn-AMC; type: biochemical
T3 construct: tested with purified active δ-secretase, IC50 values for the top 8 candidates were calculated; purchased Sino Biological (Beijing, China)
T3 sequence (Q99538 18-323 limits assumed): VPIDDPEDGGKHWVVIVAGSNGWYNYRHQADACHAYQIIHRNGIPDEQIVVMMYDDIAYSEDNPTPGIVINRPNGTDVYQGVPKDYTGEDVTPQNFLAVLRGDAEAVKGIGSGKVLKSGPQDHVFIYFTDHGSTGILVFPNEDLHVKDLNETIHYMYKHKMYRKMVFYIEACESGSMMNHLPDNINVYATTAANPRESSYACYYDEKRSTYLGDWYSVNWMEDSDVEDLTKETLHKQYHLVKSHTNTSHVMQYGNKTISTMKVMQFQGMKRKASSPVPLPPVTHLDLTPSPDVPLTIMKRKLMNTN
Procedure: δ-secretase – 50 nM enzyme was pre-incubated with inhibitor in assay buffer (50 mM Sodium Citrate pH 5.5, 0.1% CHAPS, 60 mM Na2HPO4, 1 mM EDTA) for 10 min at 37 °C. The reaction was initiated on addition of 10 μM Cbz-Ala-Ala-Asn-AMC (Bachem).
as §1

[4] = purified recombinant enzyme, mean±s.d., read-out: IC50 AEP (δ-secretase)

Sequence of cathepsin-L (P07711 114-333, species assumed): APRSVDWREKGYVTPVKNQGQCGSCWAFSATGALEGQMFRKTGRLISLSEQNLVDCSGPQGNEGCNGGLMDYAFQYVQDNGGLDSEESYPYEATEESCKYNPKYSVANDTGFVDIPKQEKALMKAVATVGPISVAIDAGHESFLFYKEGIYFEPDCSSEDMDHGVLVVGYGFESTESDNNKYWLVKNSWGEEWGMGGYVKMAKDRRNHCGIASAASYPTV

Row | IC50 (cathepsin-L) [nM] | IC50 (caspase-3) [nM] | Papp A→B at 2 h, 10 µM [1] [×10⁻⁶ cm/s] | Papp B→A at 2 h, 10 µM [1] [×10⁻⁶ cm/s] | BBB-PAMPA permeability / BBB penetration in words [2] | Mean Remaining Parent (NADPH-free) [3] [%] | Mean Remaining Parent (with NADPH) [3] [%] | inhibition at 10 min, 3 µM (CYP2C9) [%] | inhibition at 10 min, 10 µM (CYP2C9) [%] | inhibition at 10 min, 3 µM (CYP2D6) [%] | inhibition at 10 min, 10 µM (CYP2D6) [%] | inhibition at 10 min, 3 µM (CYP2C19) [%] | inhibition at 10 min, 10 µM (CYP2C19) [%] | inhibition at 10 min, 3 µM (CYP1A2) [%] | inhibition at 10 min, 10 µM (CYP1A2) [%] | IC50 (δ-secretase; [4]) [nM] | efflux ratio at 2 h, 10 µM [1] | inhibition at 10 min, 3 µM (CYP3A; pH 7.4, probe testosterone) [%] | inhibition at 10 min, 10 µM (CYP3A; pH 7.4, probe testosterone) [%] | SMILES | Papp at 18 h [2] [×10⁻⁶ cm/s] | also measured
1 | > 200000 | > 200000 | 1.4 | 3.7 | – | 0 | 1 | 4.3 | -2.7 | 2.9 | -2.6 | 13.4 | 29.4 | 28.4 | 44.5 | 280 ± 20 | 2.7 | 14.2 | 27.6 | Cc1cccc(NCc2ccc(O)c3ncccc23)c1C [compound 12] | – | effective permeability Pe [2]: < LLOQ
2 | 1300 ± 390 | > 100000 | 19.3 | 17.4 | barely penetrate the BBB | 86 | 16 | 47.8 | 69.2 | 9.9 | 1.4 | 37.7 | 55.7 | 13.5 | 10.3 | 260 ± 30 | 0.9 | 2.5 | 0.7 | COc1ccc(N2CCN(C(c3ccc(N(C)C)cc3)c3nnnn3C(C)(C)C)CC2)cc1 (stereo not drawn) [compound 31] | – | effective permeability Pe [2]: < LLOQ
3 | > 200000 | 29700 ± 4680 | 1.1 | 20.3 | barely penetrate the BBB | 99 | 98 | 15.6 | 17.1 | -5.4 | 0.9 | -12 | 9.5 | -7.6 | 10.5 | 370 ± 60 | 18.2 | -6 | 2.4 | Cn1c(=O)[nH]c(=O)c2c1nc(S)n2CC(O)COc1ccc(Cl)cc1 (stereo not drawn) [compound 38] | 0.007 | IC50 (δ-secretase; purified active δ-secretase, read-out: IC50 / potency toward δ-secretase): ~370 nM

Row | SMILES | IC50 (cathepsin-L) [nM] | IC50 (caspase-3) [nM] | Papp A→B at 2 h, 10 µM [1] [×10⁻⁶ cm/s] | Papp B→A at 2 h, 10 µM [1] [×10⁻⁶ cm/s] | BBB-PAMPA permeability / BBB penetration in words [2] | Mean Remaining Parent (NADPH-free) [3] [%] | Mean Remaining Parent (with NADPH) [3] [%] | inhibition at 10 min, 3 µM (CYP2C9) [%] | inhibition at 10 min, 10 µM (CYP2C9) [%] | inhibition at 10 min, 3 µM (CYP2D6) [%] | inhibition at 10 min, 10 µM (CYP2D6) [%] | inhibition at 10 min, 3 µM (CYP2C19) [%] | inhibition at 10 min, 10 µM (CYP2C19) [%] | inhibition at 10 min, 3 µM (CYP1A2) [%] | inhibition at 10 min, 10 µM (CYP1A2) [%] | IC50 (δ-secretase; [4]) [nM] | efflux ratio at 2 h, 10 µM [1] | inhibition at 10 min, 3 µM (CYP3A; pH 7.4, probe testosterone) [%] | inhibition at 10 min, 10 µM (CYP3A; pH 7.4, probe testosterone) [%] | Papp at 18 h [2] [×10⁻⁶ cm/s] | also measured
4 | Nc1ccc(N2CCOCC2)c2nonc12 [compound 11, 7-(morpholin-4-yl)-2,1,3-benzoxadiazol-4-amine] | > 200000 | 31900 ± 1940 | 35 | 7 | detected at high-levels | 103 | 20 | 4.3 | 5.6 | 7.8 | 21.9 | 4.4 | 6.8 | 13.1 | 37 | – | – | – | – | > 25 | inhibition at 10 min, 3 µM (CYP3A; pH 7.4): 4.1%; inhibition at 10 min, 10 µM (CYP3A; pH 7.4): 21.6%
